“Also recorded” adds a separate entry of the source.

The subject of test [1] is patient-derived tumor xenografts (PDXs) of breast, ovarian and pancreatic cancer. Nature of the test: In vivo PDX sensitivity to PARPi (antitumor activity by RECIST on % tumor volume change). Further details: species or system mice. The protocol:
Fresh tumor samples from patients with breast or high-grade serous ovarian cancer were prospectively collected for implantation into nude mice under protocols approved by Vall Hebron's institutional review board (IRB), Institut Curie or Institut Paoli-Calmettes. Experiments were conducted following the European Union's animal care directive (2010/63/EU) and were approved by the Ethical Committee of Animal Experimentation of the Vall d'Hebron Research Institute (Barcelona, Spain) or by the Ethical Committee of Animal Experimentation CEEA-51 (Evry, France). Fresh primary or metastatic human tumors were obtained from patients at time of surgery or biopsy and immediately implanted into the mammary fat pad (surgery samples) or the lower flank (metastatic samples) of 6-week-old female athymic HsdCpb:NMRI-Foxnlnu mice (Harlan Laboratories). Animals were continuously supplemented with 1 μM 17b-estradiol (Sigma-Aldrich) in their drinking water. Upon growth of the engrafted tumors, the model was perpetuated by serial transplantation onto the lower flank. In each passage, flash-frozen and formalin-fixed paraffin embedded (FFPE) samples were taken for genotyping and histological studies.
To evaluate the sensitivity to PARP inhibition, tumor-bearing mice were equally distributed into treatment groups of 5 to 10 mice with tumors ranging 70 to 300 mm3. Olaparib 50 mg/kg or 100 mg/kg, Niraparib 75 mg/kg or 50 mg/kg, or Veliparib 100 mg/kg were administered per gavage (p.o.) daily (in 10% v/v DMSO/10% w/v Kleptose [HP-β-CD]). Tumor growth was measured with caliper bi-weekly from first day of treatment to day 21 and every 7-10 days in the acquired resistance setting. To generate PDX models with acquired resistance to PARPi, olaparib treatment was maintained for up to 150 days in olaparib-sensitive tumors until individual tumors regrew. In all experiments, mouse weight was recorded twice weekly. The tumor volume was calculated as V=4π/3/Lx12, “L” being the largest diameter and “1” the smallest. Mice were euthanized when tumors reached 1500 mm3 or in case of severe weight loss, in accordance with institutional guidelines. The antitumor activity was determined by comparing tumor volume at 21 days to its baseline: % tumor volume change=(V21 days−Vinitial)/Vinitial×100. For olaparib-sensitive PDX, the best response was defined as the minimum value of % tumor volume change sustained for at least 10 days. To classify the antitumor response, the Response Evaluation Criteria In Solid Tumors (RECIST) criteria on the % tumor volume change was followed: CR (complete response), best response<−95%; PR (partial response), −95<best response<−30%; SD (stable disease), −30%<best response<+20%, PD (progressive disease), best response>+20%.

The next test concerns RAD51 foci. Nature of the test: RAD51 nuclear foci by immunofluorescence in FFPE PDX tumors. It counts as in vivo, mice. The protocol:
(§1) The following primary antibodies were used for immunofluorescence: rabbit anti-RAD51 (Santa Cruz Biotechnology H-92, dilution 1:250), rabbit anti-RAD51 Ab from Cell Signalling Technologies (CST #8875, dilution 1:25 from a 83 μg/ml stock), rabbit anti-RAD51 Ab from Abcam (ab-133534, dilution 1:1000), mouse anti-Geminin (NovoCastra NCL-L, 1:100 in PDX samples, 1:60 in patient samples), rabbit anti-Geminin (ProteinTech 10802-1-AP, 1:400), mouse anti-BRCA1 (Santa Cruz Biotechnology D-9, 1:50 for C-term; or Abcam MS110, 1:200 for N-term), and mouse anti-γH2AX (Millipore JBW301, 1:200). The secondary antibodies used were: goat anti-rabbit Alexa fluor 568 (Invitrogen; 1:500), goat anti-mouse Alexa fluor 488 (Invitrogen; 1:500), goat anti-mouse Alexa fluor 568 (Invitrogen; 1:500) and goat anti-rabbit Alexa fluor 488 (Invitrogen; 1:500).
(§2) Thin tissue sections were deparaffinized with xylene and hydrated with decreasing concentrations of ethanol. […]
(§3) RAD51 was quantified by scoring: a) the percentage of tumor cells with RAD51 nuclear foci, b) the percentage of γH2AX foci positive cells with RAD51 foci, or c) the percentage of geminin positive cells with RAD51 foci, as indicated in the Figures. […] Optimally, one-hundred geminin or γH2AX foci-positive cells from at least 3 different and representative areas of each sample were analyzed. […]

Another test has as its system γH2AX foci. Nature of the test: γH2AX nuclear foci by immunofluorescence in FFPE PDX tumors. It counts as in vivo, mice. The protocol: as §1, §2, §3

For `O=C(c1cc(Cc2n[nH]c(=O)c3ccccc23)ccc1F)N1CCN(C(=O)C2CC2)CC1` [olaparib], the “number of PDX models in which treatment exhibited antitumor activity as assessed by RECIST” value in test [1] (of 44 PDX models (39 BrC, 3 HGSOC/OvC, 2 PaC), p.o. daily, CR/PR/SD) is recorded as “ten”. Also, the “number of PDX models with complete response (CR)” value in test [1] (of 44 PDX models, CR: best response <-95% tumor volume change) stood at 6. In test [1] (of 44 PDX models, PD: best response >+20%), the “number of PDX models with progressive disease (PD), olaparib-resistant” value stood at 34. Further, the “number of PDX models with partial response (PR)” value in test [1] (of 44 PDX models, PR: -95<best response<-30%) was 2. For the same compound, the “percentage of RAD51 foci/geminin-positive cells (RAD51 score)” value with RAD51 foci (olaparib-treated samples from resistant PDX models (FIG. 2C)) is “significantly increased”. Besides, the “RAD51 foci formation, percentage of tumor cells with RAD51 nuclear foci” value in the test on RAD51 foci (treated vs vehicle, olaparib-resistant PDX models (FIG. 2A)) is reported as “increased; also recorded: only significantly induced in the olaparib resistant PDX models”. In the test on γH2AX foci (treated vs vehicle PDX tumors, sensitive and resistant groups (FIG. 2A)), the “γH2AX foci formation, percentage of tumor cells with γH2AX nuclear foci” value was “increased; also recorded: induces”. Moreover, in the test on γH2AX foci (treated vs vehicle, both sensitive and resistant tumors (FIG. 2B)), the “γH2AX foci formation in geminin-positive cells” value is on record as “increased; also recorded: significantly increases”.
